Patent publication USRE39682E1, “Farnesyl derivatives and pharmaceutical compositions containing them” (Ramot at Tel Aviv University Ltd., priority 1993, dated 2007)

Tests used:
[1] = target: T1, PPMTase (Rattus norvegicus, UniProt Q9WVM4); test: PPMTase activity (AFC methylation) in membranes of non-transformed Rat-1 cells; assay type: biochemical; conditions: non-transformed Rat-1 membranes; for PPMTase activity: with inhibitor
T1 construct: PPMTase activity in membranes obtained from four different cell lines as determined by methylation of AFC; endogenous in cells; host or cells: ras-transformed rat1 (EJ) cell membranes
Procedure: Charles River adult male rats were used for preparation of cerebellar synaptosomal membranes. Cerebella were removed after decapitation and homogenized in 0.32M sucrose containing 50 mM Tris-HCl pH 7.4, 3 mM EDTA, 1 mM EGTA, 5 unit/ml aprotinin and 5 μg/ml pepstatin (buffer A) to yield 10% (w/v) homogenates. Nuclear fractions were obtained by 10 min. 600×g centrifugation and synaptosomal fractions were obtained by 20 mins. 14,500×g centrifugation. Membranes of the various cell types used were prepared in the above buffer A by a 60 min. spin at 100,000×g.
Pellets were resuspended in the homogenization buffer and stored at −70° C. Methylation assays were performed at 37° C. in 50 mM Tris-HCl buffer pH 7.4, using 75-125 μg protein, 25 μM [methyl-^3H]AdoMet ([…]) as a methyl donor and 150 μM AFC as a methylation substrate (prepared as a stock solution in DMSO) in a total volume of 50 μl. DMSO concentration in all assays was 4%.
(§1) Reactions were terminated after 10 min. by adding 500 μl chloroform methanol (1:1) and a subsequent addition of 250 μl H2O, mixing them and subsequently by phase separation. A portion of 125 μl of the chloroform phase was dried down at 40° C. and 200 μl of 1M NaOH/1% SDS solution were added thereto. The [^3H]methanol thus formed was counted by the vapor phase equilibrium method as described previously (Hakiai et al., Cell Mol. Neurobiol., 11, 415-431, (1991); Lenner et al., Cell Mol. Neurbiol., 12, 333 and 3351, (1992); Ben-Baruch et al., Biochem. Biophy. Res. Commun., 195, 282-288, (1993)). Typical background counts (i.e. counts of methylation with no AFC added) were 50-100 cpm while typical methylation counts with AFC as a substrate yielded 500 to 6000 cpm. Assays were performed in triplicate and background counts subtracted. Methylation of endogenous substrates, in intact cells, and [α-^32P] GTP-blot overlay assays and gel electrophoreses were performed as detailed previously (Hakiai et al., supra (1991); Lenner et al., supra (1993)).
The B16F10 melanoma cells were grown in RPMI 1640/10% fetal calf serum, 2 mM glutamine and antibiotics as for the HEC1A cells, at the density of 1×10^4 cells/well. All four types of cells were used for determining the PPMTase activity using AFC as the substrate as described above for synaptosomal membrane preparation. Usually 150 μg membranal proteins were used in the assay for a 10 min. incubation time.

[2] = tested on: PPMTase activity in intact HEC1A, ras-transformed rat1 and melanoma cells; test: Methylation of endogenous 21-24 KDa GTP-binding proteins in intact cells ([methyl-3H]methionine labelling); assay type: cell-based; conditions: 100 μM, FIG. 3
Procedure: as §1
HEC1A, rail, ras-transformed rail and B16F10 melanoma cells were also used for metabolic labelling of endogenous proteins with 100-300 μCi/ml [methyl-^3H]methionine which was also indicative of PPMTase activity. […]

[3] = tested on: human endometrial carcinoma HEC1A cells; test: Growth of HEC1A cells (cell counting); assay type: cell-based; conditions: 3 days of treatment
Excerpt: The cell lines employed were rat1, -EJ, which are rat1 cells stably expressing Val- 12 activated human Ha-ras gene (Land H. et al., Nature, 304, 596-602, (1983)); V-raf-3T3, which are 3T3 cells stably expressing the V-raf gene (Xu, N., et al., Proc. Natl. Acad. Sci., 90, 6741-6745); RB-22, which are 3T3 cells stably expressing the rat Erb-B2 gene (Peles, et al., EMBO J., 10, 2077-2086 (1991)) CO6O cells (SV40-CHO), which are CHE cells stably expressing the SV-40 T-antigen gene (Lavi, Proc. Natl. Acad. Sci., 78, 6144-6148 (1981)); human endometrial carcinoma cell line HEC1A, which are cells that express activated K-ras (Enomoto T., Cancer Res., 50, 6139-6145; mouse B16F10 melanoma cells, rat pheochromocytoma PC12 cells, […] cells CHE and COS cells.
HEC1A, V-raf-3T3 and SV40-CHE cells were grown in Dulbecco's modified Eagle medium (DMEM) containing 10% fetal calf serum (FCS), 4 mM L-glutamine, 10 μg/ml streptomycin and 10 U/ml penicillin. Rat1 and -EJ cells were grown in the same medium except that it was supplemented with 12.5 U/ml nyostatin. RB-22 cells were grown in modified DMEM (1 mM sodium pyruvate, 20 mM sodium bicarbonate)/10% FCS containing 4 mM L-glutamine, […] streptomycin, 10 U/ml penicillin. PC-12 cells were grown in DMEM 15% FCS/5% horse serum and the above noted antibiotics.
HEC1A cells were plated in 24 well plates at a density of 5×10^3 cells per well and fed with 1 ml of medium. The cells were grown at 37° C. in a humidified atmosphere of 95%/5% air/CO2. All other cell types employed were plated in 24 well plates at a density of 2×10^3 cells per well and fed with the appropriate medium.
Cultures were treated with farnesyl derivatives or with solvent either 3 hrs following plating or one day after plating as indicated. The drugs were prepared in DMSO to yield the final desired drug (0.1-50 μM) concentration and 0.1% DMSO. Control cultures received 0.1% DMSO only. Cultures were fed on days 6, 7 and 9 of the experiment with the drugs or with solvent-containing media.
Cells were counted following 3, 7 and 10 days of beginning of treatments with drugs. For counting, cells were detached from plates with trypsin/EDTA, and collected by a low speed spin in the presence of DMEM/10% FCS. The pelleted cells were resuspended in a small volume of DMEM/10% FCS and counted under the microscope. Viability of cells was estimated by staining with (3-(4,5-dimethylthiosol-2-yl)-2,5-diphenyltetrazolium bromide (MTT) and microscopic examination of the stained and unstained cells, or spectrophotometric estimation (OD490, 590) of the total stain in each well. Non viable cells were estimated by the trypan blue exclusion method. […]

[4] = Homo sapiens, HEC-1-A, 72 h, at 10 μM FTS or 50 μM FTA, read-out: maximal effects, inhibition of growth

T1 sequence (Q9WVM4 whole entry): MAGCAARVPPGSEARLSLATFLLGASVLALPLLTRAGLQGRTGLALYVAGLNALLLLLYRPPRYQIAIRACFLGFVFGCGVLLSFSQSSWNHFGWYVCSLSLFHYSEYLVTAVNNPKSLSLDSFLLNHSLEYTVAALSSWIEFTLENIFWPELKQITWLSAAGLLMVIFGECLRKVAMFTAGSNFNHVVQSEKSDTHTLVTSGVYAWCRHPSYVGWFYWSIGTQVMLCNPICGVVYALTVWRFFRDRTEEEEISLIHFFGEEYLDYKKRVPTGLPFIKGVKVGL

SMILES | % Inhibition [1] [%] | PPMTase activity [1] [pmol/min/mg protein] | inhibition of methylation of endogenous 21-24 KDa proteins [2] | concentration of maximal effects on growth [3] [µM] | Emax [3, 4] [%] | Emax at 10 µM [3, 4] [%]
CC(C)=CCC/C(C)=C/CC/C(C)=C/CSCC(=O)O [FTA, S-trans, trans-farnesylthioacetic acid, reference compound] | 66 | 0.9 | able to inhibit | 50 | ~50 | –
CC(C)=CCC/C(C)=C/CC/C(C)=C/CSc1ccccc1C(=O)O [FTS, (3,7,11-trimethyl-dodeca-2,6,10-trienyl)-2-thiobenzoic acid] | 45 | 1.5 | able to inhibit | 10 | – | ~50
